Laboratory results from PMC6627609, “Targeting Quorum Sensing: High-Throughput Screening to Identify Novel LsrK Inhibitors” (International Journal of Molecular Sciences, 2019).
Counter-ions that a name gives are not always drawn.

These compounds were tested against LsrK (Salmonella typhimurium, UniProt Q8ZKQ6) (assay: biochemical). Settings: not given.
Format: biochemical, S. typhimurium

LsrK, sequence (Q8ZKQ6 whole entry): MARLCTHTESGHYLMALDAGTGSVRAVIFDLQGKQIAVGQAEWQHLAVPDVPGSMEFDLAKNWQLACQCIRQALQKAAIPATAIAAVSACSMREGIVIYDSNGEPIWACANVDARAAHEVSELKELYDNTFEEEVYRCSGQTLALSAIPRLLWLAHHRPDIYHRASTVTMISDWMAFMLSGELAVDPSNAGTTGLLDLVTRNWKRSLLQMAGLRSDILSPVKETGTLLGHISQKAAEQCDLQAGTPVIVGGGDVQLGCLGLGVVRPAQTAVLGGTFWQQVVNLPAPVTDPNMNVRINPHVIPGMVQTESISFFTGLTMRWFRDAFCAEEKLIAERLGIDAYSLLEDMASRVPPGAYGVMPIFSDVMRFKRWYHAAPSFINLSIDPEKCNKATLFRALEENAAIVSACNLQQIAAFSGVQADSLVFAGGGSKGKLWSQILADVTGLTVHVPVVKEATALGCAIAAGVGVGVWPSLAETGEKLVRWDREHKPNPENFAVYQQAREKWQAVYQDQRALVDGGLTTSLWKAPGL

Point of comparison: `CC(C)c1ccc2c(c1)CC[C@H]1[C@](C)(C(N)=O)CCC[C@]21C` [DEHYDROABIETAMIDE], inhibition at 50 µM 2%. Against it:
- Nc1ncn([C@@H]2O[C@H](CO)[C@@H](O)[C@H]2O)c(=O)n1 [AZACITIDINE] — higher, 9%
- CC(C)(C)NC[C@H](O)c1ccc(O)c(CO)c1 [LEVALBUTEROL HYDROCHLORIDE] — higher, 8%
- N#Cc1ccc2c(c1)N(CCCN1CCC(O)CC1)c1ccccc1S2 [PERICIAZINE] — higher, 4%
- CO[C@H]1C[C@@H]2CC[C@@H](C)[C@@](O)(O2)C(=O)C(=O)N2CCCC[C@H]2C(=O)O[C@H]([C@H](C)C[C@@H]2CC[C@@H](O)[C@H](OC)C2)CC(=O)[C@H](C)/C=C(\C)[C@@H](O)[C@@H](OC)C(=O)[C@H](C)C[C@H](C)/C=C/C=C/C=C/1C [SIROLIMUS] — higher, 4%
- COC(=O)c1cc(O)c(=O)c2c(O)c(O)ccc2c1 [METHYL 7-DESHYDROXYPYROGALLIN-4-CARBOXYLATE] — higher, 112%
- CO/N=C(\C(=O)N[C@@H]1C(=O)N2C(C(=O)O)=C(COC(N)=O)CS[C@H]12)c1ccco1 [CEFUROXIME SODIUM] — higher, 3%
- CN1CCCCC1c1ccc(-c2cccnc2)nc1 (stereo not shown) [ANABASAMINE HYDROCHLORIDE] — the same, 2%
- NC1(C(=O)O)CC1 [AMINOCYCLOPROPANECARBOXYLIC ACID] — lower, 1%
- Cc1ccc(Cl)c(Nc2ccccc2C(=O)O)c1Cl [MECLOFENAMATE SODIUM] — higher, 6%
- Cc1nc(C)c(Cl)c(O)c1Cl [CLOPIDOL] — the same, 2%
- CC1(C)S[C@@H]2[C@H](NC(=O)[C@H](N)c3ccccc3)C(=O)N2[C@H]1C(=O)O [AMPICILLIN SODIUM] — lower, 1%
- CCCCCCc1ccc(O)cc1O [HEXYLRESORCINOL] — lower, 0%
- O=C(Nc1ccc([N+](=O)[O-])cc1Cl)c1cc(Cl)ccc1O [NICLOSAMIDE] — lower, 0%
- CO[C@H]1[C@H](O)[C@H](O[C@H]2CC[C@@]3(C=O)[C@H](CC[C@@H]4[C@@H]3CC[C@]3(C)[C@@H](C5=CC(=O)OC5)CC[C@]43O)C2)O[C@@H](C)[C@@H]1O [PERUVOSIDE] — lower, 1%
- COC(=O)C[C@H]1C2(C)CC34OC5(C)O[C@@]6([C@H](OC)C(OC(=O)C(C)C)[C@]7(C)C(/C(=C(/OC)C(C)C)C(=O)O[C@H]7c7ccoc7)[C@@]6(O5)[C@H](OC)[C@@]3(OC)C2OC(C)=O)[C@]14C (stereo partly shown) [CHUKRASIN METHYL ETHER] — lower, 1%
- CN(C)c1ccc(O)c2c1C[C@H]1C[C@H]3[C@H](N(C)C)C(O)=C(C(N)=O)C(=O)[C@@]3(O)C(O)=C1C2=O [MINOCYCLINE HYDROCHLORIDE] — higher, 71%
- CCCCCC(=O)Cc1cc(O)cc(O)c1C(=O)Oc1cc(CC(=O)CCCCC)c(C(=O)O)c(OC)c1 [[…]] — lower, 0%
- COc1ccc2c(C)cc(=O)oc2c1 [H[…] ETHER] — lower, 0%
- C[C@]12CC[C@H]3C(=CCc4cc(O)ccc43)[C@@H]1CCC2=O [EQUILIN] — lower, 1%
- Cc1c(C(=O)O)c(O)cc2c1C(=O)c1c(O)c([C@@H]3O[C@H](CO)[C@@H](O)[C@H](O)[C@H]3O)c(O)c(O)c1C2=O [CARMINIC ACID] — higher, 6%
- Oc1c(Cl)cc(Cl)c2cccnc12 [CHLOROXINE] — higher, 13%
- CN1[C@@H]2CC[C@H]1C[C@@H](OC(=O)C(CO)c1ccccc1)C2 (stereo partly shown) [ATROPINE SULFATE] — higher, 3%
- NCCC[C@H](N)C(=O)O [ORNITHINE] — lower, 1%
- COc1cc2ccc(=O)oc2c(OC)c1OC [FRAXIDIN METHYL ETHER] — lower, 1%
- CC(CCc1ccc(O)cc1)NCCc1ccc(O)c(O)c1 (stereo not shown) [DOBUTAMINE HYDROCHLORIDE] — higher, 3%
- CN1C(C)(C)CCCC1(C)C [PEMPIDINE TARTRATE] — the same, 2%
- CCOc1ccc2nc3cc(N)ccc3c(N)c2c1 [ETHACRIDINE LACTATE] — lower, 1%
- C[n+]1cc2c3c(ccc2c2ccc4cc5c(cc4c21)OCO5)OCO3 [SANGUINARINE SULFATE] — higher, 84%
- CC(C)CC(NC(=O)[C@H](C)N)C(=O)O (mixture of isomers) [ALANYL-dl-LEUCINE] — the same, 2%
- COc1ccc2[nH]cc(CCNC(C)=O)c2c1 [MELATONIN] — lower, 1%
- COc1cc2c(cc1OC)C1(O)C(=O)c3ccc(O)c(C(=O)O)c3OC1CO2 (stereo not shown) [12a-HYDROXY-9-DEMETHYLMUNDUSERONE-8-CARBOXYLIC ACID] — higher, 3%
- CCN(CC)CCOC(=O)C(c1ccccc1)c1ccccc1 [ADIPHENINE HYDROCHLORIDE] — lower, 0%
- OC(CCN1CCCCC1)(c1ccccc1)c1ccccc1 [PRIDINOL METHANESULFONATE] — lower, 1%
- Cc1cc2c(C(C)C)c(O)c(O)c(C=O)c2c(O)c1-c1c(C)cc2c(C(C)C)c(O)c(O)c(C=O)c2c1O [GOSSYPOL] — higher, 83%
- C#C[C@]1(O)CC[C@H]2[C@@H]3CCc4cc(O)ccc4[C@H]3CC[C@@]21C [ETHINYL ESTRADIOL] — lower, 1%
- CCOC(=O)[C@H](CCc1ccccc1)N[C@@H](C)C(=O)N1[C@H](C(=O)O)C[C@@H]2CCC[C@@H]21 — higher, 3%
- CC1CCC(NC(=O)N(CCCl)N=O)CC1 (stereo not shown) [SEMUSTINE] — lower, 0%
- CC(=O)O[C@]1(C(C)=O)CC[C@H]2[C@@H]3C=C(Cl)C4=CC(=O)CC[C@]4(C)[C@H]3CC[C@@]21C [CHLORMADINONE ACETATE] — lower, 1%
- COCCCOc1ccnc(C[S+]([O-])c2nc3ccccc3[nH]2)c1C (stereo not shown) [RABEPRAZOLE SODIUM] — lower, 0%
- CC(=O)c1cc2ccccc2oc1=O [3-ACETYLCOUMARIN] — lower, 0%
- C[C@@H]1[C@H](O)[C@@H](C)/C=C/C=C/C=C/C=C/C=C/C=C/C=C/[C@H](O[C@@H]2O[C@H](C)[C@@H](O)[C@H](N)[C@@H]2O)C[C@@H]2O[C@](O)(C[C@@H](O)C[C@@H](O)[C@H](O)CC[C@@H](O)C[C@@H](O)CC(=O)O[C@H]1C)C[C@H](O)[C@H]2C(=O)O [AMPHOTERICIN B] — higher, 61%

Same assay, conditions: 50 µM

Point of comparison: `O=P([O-])(O)C(O)(Cc1cccnc1)P(=O)(O)O.[Na+]` [RISEDRONATE SODIUM HYDRATE], “Inhibition (%)” value 2. Against it:
- 3-BROMO-4-METHYL-3.4-HEXAMETHYLENE-3.4-DIHYDRODIAZETE-1.2-DIOXIDE — lower, 1
- GRAMICIDIN — lower, 0
- CCOc1ccc(C(=O)c2ccc(O)c(O)c2O)cc1 [2.3.4-TRIHYDROXY-4'-ETHOXYBENZOPHENONE] — higher, 79
- ASARININ (-) — lower, 1
- CC(=O)OCC1=C(C(=O)O)N2C(=O)[C@@H](N)[C@H]2SC1 [7-AMINOCEPHALOSPORANIC ACID] — higher, 64
- CO/N=C(\C(=O)N[C@@H]1C(=O)N2C(C(=O)OCOC(=O)C(C)(C)C)=C(/C=C\c3scnc3C)CS[C@H]12)c1csc(N)n1 [CEFDITORIN PIVOXIL] — the same, 2
- C[C@@H]1[C@H](O)[C@@H](C)/C=C/C=C/CC/C=C/C=C/C=C/C=C/C(O[C@H]2O[C@H](C)[C@@H](O)[C@H](N)[C@@H]2O)CC2O[C@](O)(CC(O)C(O)CCC(O)CC(O)CC(O)CC(=O)O[C@H]1C)CC(O)C2C(=O)O (stereo partly shown) [NYSTATIN] — higher, 41
- CC1(C)CC2C1CCC1(C)OC2(C)CCC1O (stereo not shown) [3.7-EPOXYCARYOPHYLLAN-6-OL] — the same, 2
- COc1cc(OC)c(C(=O)CCCN2CCCC2)c(OC)c1.Cl [BUFLOMEDIL HYDROCHLORIDE] — lower, 1
